In paper PMC6349357, “Computational and experimental analysis of bioactive peptide linear motifs in the integrin adhesome” (PLoS ONE, 2019):
Marks after values point to notes of the source that are not given here.

Columns and labels:
resting platelets = assay: Platelet aggregation induced by peptide in resting washed platelets (activation); assay type: cell-based, human (healthy volunteers); details: for Activation, 5μM / Activation, 20μM: S3 Table, n=3; for Activation, 5μM: peptide 5 μM; for Activation, 5μM / Activation, 20μM / Activation / Activation, donor 14 06 13 / Activation, donor 20 08 13: unit assumed; for Activation, 20μM: peptide 20 μM; for Activation: platelet aggregation in resting platelets after 6 minutes incubation with peptide, pal-peptides 20 μM, tat-peptides 50 μM, optical density, aggregometer, mean, n>=3; for Activation, donor 14 06 13: replicate 14_06_13; for Activation, donor 14 06 13 / Activation, donor 18_06_13 / Activation, donor 20_06_13 / Activation, donor 20 08 13 / Activation, donor 22_08_13_DONOR1 / Activation, donor 22_08_13_DONOR2: SDC4 peptides and controls, 20 μM; for Activation, donor 18_06_13: replicate 18_06_13; for Activation, donor 18_06_13 / Activation, donor 20_06_13: in % (unit assumed); for Activation, donor 20_06_13: replicate 20_06_13; for Activation, donor 20 08 13: replicate 20_08_13; for Activation, donor 22_08_13_DONOR1: replicate 22_08_13_DONOR1; for Activation, donor 22_08_13_DONOR2: replicate 22_08_13_DONOR2; for Aggregation before TRAP activation, donor h: replicate donor h; for Aggregation before TRAP activation, donor i: replicate donor i; for Aggregation before TRAP activation, donor j: replicate donor j
Experimental: (§1) Blood was drawn from healthy volunteers into a syringe containing a final volume of 15% Acid Citrate Dextrose (ACD). The blood/ACD mixture was then aliquoted into 15 ml Cellstar tubes, at volumes of 5ml per tube, and centrifuged at 150 rcf for 10 minutes to obtain platelet rich plasma (PRP). PRP was then transferred to a 50ml tube using a pipette. The pH was then adjusted to 6.5. Prostaglandin (PGE1) was then added with a final concentration of 1μM. The PRP was then centrifuged at 750 rcf. After centrifugation the platelet poor plasma (PPP) was discarded and the pellet was resuspended in buffer A (6 mM dextrose, 130 mM NaCl, 9 mM NaHCO3, 10 mM sodium citrate, 10 mM Tris base, 3 mM KCl, 0.81 mM KH2PO4 and 0.9 mM MgCl26H2O, pH 7.4). A platelet concentration of 3x10^5/μl or 1x10^6/μl was obtained by dilution depending on the experiment in which they were used. Platelets were left to rest for 45 minutes and supplemented with 1.8mM calcium chloride prior to use.
(§2) A platelet concentration of 3x10^5 /μl was used when performing standard aggregations and a concentration of 1x10^6 /μl was used for sample preparation for western blot analysis. The extent of platelet aggregation was measured by quantifying the optical density of the samples using the Bio-Data PAP-8 aggregometer (platelet aggregation profiler, Horsham, PA, USA). A temperature of 37°C was maintained and samples were stirred using magnets spinning at 1100 rpm. 200 μl of washed platelets was added to each aggregation tube. Different volumes of buffer, peptide and TRAP were added to achieve the desired concentrations. Peptide/buffer was added to each well after two minutes. TRAP, with a final concentration depending on the experiment, was added 6 minutes later and data was collected for an additional 7 minutes.

TRAP-activated platelets = assay: Inhibition of TRAP-induced platelet aggregation after pre-incubation with peptide; assay type: cell-based, human (healthy volunteers); details: for Aggregation (inhibition effects of syndecan-derived peptides): S2 Table A, n=6; for Summary of effects of SDC4-derived palmitylated peptides and scrambled controls, 20μM: S2 Table B / S2 Fig, activation of resting platelets and inhibition of aggregation induced by 4 μM TRAP, in words; for Aggregation after TRAP, peptide alone 1x (A 1x / B 1x) / Aggregation after TRAP, peptide alone 2x (A 2x / B 2x): TRAP 2 μM after 6 minutes pre-incubation, mean n = 3; for Aggregation after TRAP, peptide alone 1x (A 1x / B 1x): 4 μM pal-peptides, 10 μM tat-peptides; for Aggregation after TRAP, peptide alone 2x (A 2x / B 2x): double concentration of 4 μM (pal) / 10 μM (tat); for Inhibition, donor 14_06_13: replicate 14_06_13; for Inhibition, donor 18_06_13: replicate 18_06_13; for Inhibition, donor 20_06_13: replicate 20_06_13; for Inhibition, donor 20_08_13: replicate 20_08_13; for Aggregation after TRAP activation, donor h: replicate donor h; for Aggregation after TRAP activation, donor i: replicate donor i; for Aggregation after TRAP activation, donor j: replicate donor j
Experimental: as §1, §2

[1] = platelet aggregation induced by 4 μM TRAP in platelets pre-incubated with peptide (low value = inhibition), pal-peptides 20 μM, tat-peptides 50 μM, mean, n>=3
[2] = replicate 22_08_13_DONOR1, peptide 20 μM, TRAP 4 μM
[3] = replicate 22_08_13_DONOR2, peptide 20 μM, TRAP 4 μM
[4] = TRAP 4 μM, pal 20 μM, tat 50 μM
[5] = S3 Table, peptide 5 μM, aggregation after TRAP, n=3
[6] = S3 Table, peptide 20 μM, aggregation after TRAP, n=3

pal-RMKKKDEGSYD-(NH2) [pal-SDC4_JM, N-terminally palmitylated syndecan-4 juxtamembrane peptide]
Activation, 5μM (resting platelets): 2%
Activation, 20μM (resting platelets): 1%
Activation (resting platelets): 0%
Activation, donor 14 06 13 (resting platelets): 1%
Activation, donor 18_06_13 (resting platelets): 1
Activation, donor 20_06_13 (resting platelets): 2
Activation, donor 20 08 13 (resting platelets): 1%
Activation, donor 22_08_13_DONOR1 (resting platelets): 0
Activation, donor 22_08_13_DONOR2 (resting platelets): 1
Aggregation before TRAP activation, donor h (resting platelets; pal 20 μM, tat 50 μM): 1
Aggregation before TRAP activation, donor i (resting platelets; pal 20 μM, tat 50 μM): 0
Aggregation before TRAP activation, donor j (resting platelets; pal 20 μM, tat 50 μM): 2
Aggregation (inhibition effects of syndecan-derived peptides) (TRAP-activated platelets; peptide 20 μM, TRAP 4 μM, mean): 45
Summary of effects of SDC4-derived palmitylated peptides and scrambled controls, 20μM (TRAP-activated platelets): Inhibitor
Platelet aggregation remaining after TRAP (low = inhibition) (TRAP-activated platelets; S3 Table, peptide 5 μM, aggregation after TRAP, n=3, listed as A7p SDC4-JM): 75
Platelet aggregation remaining after TRAP (low = inhibition) (TRAP-activated platelets; S3 Table, peptide 5 μM, aggregation after TRAP, n=3, listed as Juxtamembrane (A)): 64
Platelet aggregation remaining after TRAP (low = inhibition) (TRAP-activated platelets; S3 Table, peptide 20 μM, aggregation after TRAP, n=3, listed as A7p SDC4-JM): 73
Platelet aggregation remaining after TRAP (low = inhibition) (TRAP-activated platelets; S3 Table, peptide 20 μM, aggregation after TRAP, n=3, listed as Juxtamembrane (A)): 45
Aggregation after TRAP, peptide alone 1x (A 1x / B 1x) (TRAP-activated platelets): 66.33
Aggregation after TRAP, peptide alone 2x (A 2x / B 2x) (TRAP-activated platelets): 64.33
Platelet aggregation after TRAP activation (TRAP-activated platelets; [1]): 4 ^*
Inhibition, donor 14_06_13 (TRAP-activated platelets; peptide 20 μM, TRAP 4 μM): 72
Inhibition, donor 18_06_13 (TRAP-activated platelets; peptide 20 μM, TRAP 4 μM): 56
Inhibition, donor 20_06_13 (TRAP-activated platelets; peptide 20 μM, TRAP 4 μM): 74
Inhibition, donor 20_08_13 (TRAP-activated platelets; peptide 20 μM, TRAP 4 μM): 7
Platelet aggregation remaining after TRAP (low = inhibition) (TRAP-activated platelets; [2]): 3
Platelet aggregation remaining after TRAP (low = inhibition) (TRAP-activated platelets; [3]): 58
Aggregation after TRAP activation, donor h (TRAP-activated platelets; [4]): 4
Aggregation after TRAP activation, donor i (TRAP-activated platelets; [4]): 3
Aggregation after TRAP activation, donor j (TRAP-activated platelets; [4]): 5

pal-KVGAAKR-LGKKPIYKK [B19p ITGA2b-JM2 U SDC4-middle, palmitylated chimeric peptide]
Activation, 5μM (resting platelets): 2%
Activation, 20μM (resting platelets): 3%
Platelet aggregation remaining after TRAP (low = inhibition) (TRAP-activated platelets; [5]): 66
Platelet aggregation remaining after TRAP (low = inhibition) (TRAP-activated platelets; [6]): 6

tat-KRAPQMDWSKKNELFSNL [tat-NHERF1, tat peptide from NHERF1]
Activation (resting platelets): 3%
Aggregation before TRAP activation, donor h (resting platelets; pal 20 μM, tat 50 μM): 4
Aggregation before TRAP activation, donor i (resting platelets; pal 20 μM, tat 50 μM): 3
Aggregation before TRAP activation, donor j (resting platelets; pal 20 μM, tat 50 μM): 3
Platelet aggregation remaining after TRAP (low = inhibition) (TRAP-activated platelets; [1]): 70
Aggregation after TRAP activation, donor h (TRAP-activated platelets; [4]): 71
Aggregation after TRAP activation, donor i (TRAP-activated platelets; [4]): 66
Aggregation after TRAP activation, donor j (TRAP-activated platelets; [4]): 75

pal-LGKKPIYKK-(NH2) [pal-SDC4_middle, N-terminally palmitylated syndecan-4 middle (variable) region peptide]
Activation, 5μM (resting platelets; listed as A8p SDC4-middle): 2%
Activation, 5μM (resting platelets; listed as Variable (B)): 1%
Activation, 20μM (resting platelets): 1%
Activation (resting platelets): 0%
Activation, donor 14 06 13 (resting platelets): 1%
Activation, donor 18_06_13 (resting platelets): -1
Activation, donor 20_06_13 (resting platelets): 2
Activation, donor 20 08 13 (resting platelets): 0%
Activation, donor 22_08_13_DONOR1 (resting platelets): 1
Activation, donor 22_08_13_DONOR2 (resting platelets): 0
Aggregation before TRAP activation, donor h (resting platelets; pal 20 μM, tat 50 μM): 1
Aggregation before TRAP activation, donor i (resting platelets; pal 20 μM, tat 50 μM): 0
Aggregation before TRAP activation, donor j (resting platelets; pal 20 μM, tat 50 μM): 1
Aggregation (inhibition effects of syndecan-derived peptides) (TRAP-activated platelets; peptide 20 μM, TRAP 4 μM, mean): 26
Summary of effects of SDC4-derived palmitylated peptides and scrambled controls, 20μM (TRAP-activated platelets): Inhibitor
Platelet aggregation remaining after TRAP (low = inhibition) (TRAP-activated platelets; S3 Table, peptide 5 μM, aggregation after TRAP, n=3, listed as A8p SDC4-middle): 72
Platelet aggregation remaining after TRAP (low = inhibition) (TRAP-activated platelets; S3 Table, peptide 5 μM, aggregation after TRAP, n=3, listed as Variable (B)): 59
Platelet aggregation remaining after TRAP (low = inhibition) (TRAP-activated platelets; S3 Table, peptide 20 μM, aggregation after TRAP, n=3, listed as A8p SDC4-middle): 41
Platelet aggregation remaining after TRAP (low = inhibition) (TRAP-activated platelets; S3 Table, peptide 20 μM, aggregation after TRAP, n=3, listed as Variable (B)): 26
Aggregation after TRAP, peptide alone 1x (A 1x / B 1x) (TRAP-activated platelets): 31.67
Aggregation after TRAP, peptide alone 2x (A 2x / B 2x) (TRAP-activated platelets): 1.67
Platelet aggregation after TRAP activation (TRAP-activated platelets; [1]): 3 ^*
Inhibition, donor 14_06_13 (TRAP-activated platelets; peptide 20 μM, TRAP 4 μM): 60
Inhibition, donor 18_06_13 (TRAP-activated platelets; peptide 20 μM, TRAP 4 μM): 23
Inhibition, donor 20_06_13 (TRAP-activated platelets; peptide 20 μM, TRAP 4 μM): 51
Inhibition, donor 20_08_13 (TRAP-activated platelets; peptide 20 μM, TRAP 4 μM): 7
Platelet aggregation remaining after TRAP (low = inhibition) (TRAP-activated platelets; [2]): 3
Platelet aggregation remaining after TRAP (low = inhibition) (TRAP-activated platelets; [3]): 14
Aggregation after TRAP activation, donor h (TRAP-activated platelets; [4]): 3
Aggregation after TRAP activation, donor i (TRAP-activated platelets; [4]): 2
Aggregation after TRAP activation, donor j (TRAP-activated platelets; [4]): 4

pal-KVGFFKR-WEQLLTTIARTINEVENQI [B12p ITGA2b-JM U ACTN1-VBS, palmitylated chimeric peptide]
Activation, 5μM (resting platelets): 1%
Activation, 20μM (resting platelets): 7%
Platelet aggregation remaining after TRAP (low = inhibition) (TRAP-activated platelets; [5]): 74
Platelet aggregation remaining after TRAP (low = inhibition) (TRAP-activated platelets; [6]): 66

KLSQLTSLLSSIE-tat [INPP5D-tat, INPP5D peptide with C-terminal tat]
Activation (resting platelets): 4%
Aggregation before TRAP activation, donor a (resting platelets; replicate donor a, pal 20 μM, tat 50 μM): 4
Aggregation before TRAP activation, donor b (resting platelets; replicate donor b, pal 20 μM, tat 50 μM): 8
Aggregation before TRAP activation, donor c (resting platelets; replicate donor c, pal 20 μM, tat 50 μM): 2
Aggregation before TRAP activation, donor d (resting platelets; replicate donor d, pal 20 μM, tat 50 μM): 3
Aggregation before TRAP activation, donor e (resting platelets; replicate donor e, pal 20 μM, tat 50 μM): 4
Platelet aggregation remaining after TRAP (low = inhibition) (TRAP-activated platelets; [1]): 74
Aggregation after TRAP activation, donor a (TRAP-activated platelets; replicate donor a, TRAP 4 μM, pal 20 μM, tat 50 μM): 70
Aggregation after TRAP activation, donor b (TRAP-activated platelets; replicate donor b, TRAP 4 μM, pal 20 μM, tat 50 μM): 77
Aggregation after TRAP activation, donor c (TRAP-activated platelets; replicate donor c, TRAP 4 μM, pal 20 μM, tat 50 μM): 76
Aggregation after TRAP activation, donor d (TRAP-activated platelets; replicate donor d, TRAP 4 μM, pal 20 μM, tat 50 μM): 75
Aggregation after TRAP activation, donor e (TRAP-activated platelets; replicate donor e, TRAP 4 μM, pal 20 μM, tat 50 μM): 73

pal-NNPLYKEA-(NH2) [pal-ITGB3_middle2, N-terminally palmitylated ITGB3 peptide NNPLYKEA]
Activation (resting platelets): 1%
Aggregation before TRAP activation, donor h (resting platelets; pal 20 μM, tat 50 μM): 2
Aggregation before TRAP activation, donor i (resting platelets; pal 20 μM, tat 50 μM): 2
Aggregation before TRAP activation, donor j (resting platelets; pal 20 μM, tat 50 μM): 1
Platelet aggregation remaining after TRAP (low = inhibition) (TRAP-activated platelets; [1]): 74
Aggregation after TRAP activation, donor h (TRAP-activated platelets; [4]): 74
Aggregation after TRAP activation, donor i (TRAP-activated platelets; [4]): 71
Aggregation after TRAP activation, donor j (TRAP-activated platelets; [4]): 78

pal-KVGAAKR [pal-ITGA2bJM2]
Activation, 5μM (resting platelets): 1%
Activation, 20μM (resting platelets): 1%
Platelet aggregation remaining after TRAP (low = inhibition) (TRAP-activated platelets; [5]): 28
Platelet aggregation remaining after TRAP (low = inhibition) (TRAP-activated platelets; [6]): 3
